The target in this assay is T1, T. congolense sialidase (EC 3.2.1.18).
T1 construct: native bloodstream-form enzyme, isolated and partially purified on a DEAE cellulose column
The assay can be described thus: enzyme inhibition kinetics (fetuin substrate, thiobarbituric acid assay, double reciprocal plot) with partially purified enzyme. The assay is classed as biochemical, Trypanosoma congolense.

In general, pKi refers to the Ki on a negative log10 scale, so that one unit is a factor of ten. A low value points to a large Ki.

pKi: −log10 of the molar value.

Regarding `Oc1cc(O)cc(O)c1` [phloroglucinol], the pKi is 6.74.

Values taken from paper PMC8781988, “Phloroglucinol as a Potential Candidate against Trypanosoma congolense Infection: Insights from In Vivo, In Vitro, Molecular Docking and Molecular Dynamic Simulation Analyses” (Molecules, 2022).
